Test results from ChEMBL document CHEMBL4371025, “Discovery and evaluation of novel FAAH inhibitors in neuropathic pain model” (Bioorg Med Chem Lett, 2019).

Assays:
[1] = Volume of distribution at steady state in Sprague-Dawley rat at 3 mg/kg, iv or 10 mg/kg, po administered as single dose via gavage by LC-MS/MS analysis; assay type: ADME, organism-based; settings: in vivo, read-out: Vdss
[2] = molecular target: T1, Fatty-acid amide hydrolase 1 (Homo sapiens, UniProt O00519); experiment: Inhibition of human transmembrane domain deficient FFAH expressed in Escherichia coli using AAMCA as substrate incubated for 1 min measured for 50 mins by fluorescence assay
T1 sequence (O00519 whole entry): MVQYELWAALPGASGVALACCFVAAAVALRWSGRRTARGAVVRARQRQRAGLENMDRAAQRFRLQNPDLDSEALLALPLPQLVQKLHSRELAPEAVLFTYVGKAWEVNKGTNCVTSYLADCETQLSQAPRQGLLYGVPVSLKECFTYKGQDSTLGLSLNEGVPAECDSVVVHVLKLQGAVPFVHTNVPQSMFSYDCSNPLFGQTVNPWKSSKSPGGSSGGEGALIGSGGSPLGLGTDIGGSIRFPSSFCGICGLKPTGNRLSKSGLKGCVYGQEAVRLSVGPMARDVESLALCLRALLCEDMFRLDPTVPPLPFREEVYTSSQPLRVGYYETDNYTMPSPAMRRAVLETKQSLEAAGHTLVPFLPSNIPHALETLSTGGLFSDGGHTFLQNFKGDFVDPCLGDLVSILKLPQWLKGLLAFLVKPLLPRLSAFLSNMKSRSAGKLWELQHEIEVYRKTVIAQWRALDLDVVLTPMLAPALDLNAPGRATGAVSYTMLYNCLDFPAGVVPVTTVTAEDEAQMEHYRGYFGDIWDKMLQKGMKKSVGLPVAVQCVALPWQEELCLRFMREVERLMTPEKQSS

[3] = tested on: CYP1A2; experiment: Selectivity ratio of IC50 for CYP1A2 in human liver microsomes to IC50 for human transmembrane domain deficient FFAH expressed in Escherichia coli; assay type: toxicity; settings: read-out: Ratio IC50
[4] = tested on: CYP3A4; experiment: Selectivity ratio of IC50 for CYP3A4 in human liver microsomes using midazolam as substrate to IC50 for human transmembrane domain deficient FFAH expressed in Escherichia coli; assay type: toxicity; settings: probe midazolam, read-out: Ratio IC50
[5] = tested on: CYP2C9; experiment: Selectivity ratio of IC50 for CYP2C9 in human liver microsomes to IC50 for human transmembrane domain deficient FFAH expressed in Escherichia coli; assay type: toxicity; settings: read-out: Ratio IC50
[6] = Drug level in plasma of Sprague-Dawley rat at 10 mg/kg, po administered as single dose via gavage measured at 32 hrs by LC-MS/MS analysis; assay type: ADME, organism-based
[7] = molecular target: Cytochrome P450 2C19 (Homo sapiens, UniProt P33261); experiment: Inhibition of CYP2C19 in human liver microsomes using (S)-mephenytoin as substrate preincubated for 5 mins followed by NADPH cofactor addition and measured after 40 mins by LC-MS/MS analysis; assay type: ADME
Sequence of Cytochrome P450 2C19 (P33261 whole entry): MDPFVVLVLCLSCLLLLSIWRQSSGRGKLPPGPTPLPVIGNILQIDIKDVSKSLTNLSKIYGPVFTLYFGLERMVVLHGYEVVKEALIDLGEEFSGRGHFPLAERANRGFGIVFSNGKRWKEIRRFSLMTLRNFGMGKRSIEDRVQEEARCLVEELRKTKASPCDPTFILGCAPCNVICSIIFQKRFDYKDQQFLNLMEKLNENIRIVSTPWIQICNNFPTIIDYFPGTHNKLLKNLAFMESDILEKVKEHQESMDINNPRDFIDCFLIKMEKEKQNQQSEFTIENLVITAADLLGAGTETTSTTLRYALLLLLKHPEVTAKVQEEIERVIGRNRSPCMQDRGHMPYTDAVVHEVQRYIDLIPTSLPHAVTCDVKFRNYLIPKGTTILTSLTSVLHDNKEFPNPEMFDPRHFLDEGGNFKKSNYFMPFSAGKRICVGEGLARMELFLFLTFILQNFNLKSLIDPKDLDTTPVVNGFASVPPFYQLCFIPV

[8] = molecular target: T2, Monoglyceride lipase (Homo sapiens, UniProt Q99685); experiment: Inhibition of MAGL (unknown origin) up to 10 uM
T2 sequence (Q99685 whole entry): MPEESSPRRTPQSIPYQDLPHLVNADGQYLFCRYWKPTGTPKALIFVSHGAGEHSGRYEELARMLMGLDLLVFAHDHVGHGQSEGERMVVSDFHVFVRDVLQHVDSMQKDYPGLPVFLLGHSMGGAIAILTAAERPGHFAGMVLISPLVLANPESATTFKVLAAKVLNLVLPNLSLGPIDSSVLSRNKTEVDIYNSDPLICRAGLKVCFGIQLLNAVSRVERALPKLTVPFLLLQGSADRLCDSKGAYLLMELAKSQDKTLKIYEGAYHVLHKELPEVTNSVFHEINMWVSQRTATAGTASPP

[9] = Drug level in brain of Sprague-Dawley rat at 10 mg/kg, po administered as single dose via gavage measured at 48 hrs by LC-MS/MS analysis; assay type: ADME, organism-based; settings: read-out: Drug uptake
[10] = tested on: CYP2D6; experiment: Selectivity ratio of IC50 for CYP2D6 in human liver microsomes to IC50 for human transmembrane domain deficient FFAH expressed in Escherichia coli; assay type: toxicity; settings: read-out: Ratio IC50
[11] = tested on: CYP1A2; experiment: Selectivity ratio of IC50 for CYP1A2 in human liver microsomes to IC50 for rat FFAH expressed in Escherichia coli; assay type: toxicity; settings: read-out: Ratio IC50
[12] = Drug level in plasma of Sprague-Dawley rat at 10 mg/kg, po administered as single dose via gavage measured at 4 hrs by LC-MS/MS analysis; assay type: ADME, organism-based
[13] = Elimination half life in Sprague-Dawley rat at 3 mg/kg, iv administered as single dose by LC-MS/MS analysis; assay type: ADME, organism-based; settings: in vivo, read-out: beta t1/2 (converted)
[14] = molecular target: Cytochrome P450 3A4 (Homo sapiens, UniProt P08684); experiment: Inhibition of CYP3A4 in human liver microsomes using testosterone as substrate preincubated for 5 mins followed by NADPH cofactor addition and measured after 10 mins by LC-MS/MS analysis; assay type: ADME
Sequence of Cytochrome P450 3A4 (P08684 whole entry): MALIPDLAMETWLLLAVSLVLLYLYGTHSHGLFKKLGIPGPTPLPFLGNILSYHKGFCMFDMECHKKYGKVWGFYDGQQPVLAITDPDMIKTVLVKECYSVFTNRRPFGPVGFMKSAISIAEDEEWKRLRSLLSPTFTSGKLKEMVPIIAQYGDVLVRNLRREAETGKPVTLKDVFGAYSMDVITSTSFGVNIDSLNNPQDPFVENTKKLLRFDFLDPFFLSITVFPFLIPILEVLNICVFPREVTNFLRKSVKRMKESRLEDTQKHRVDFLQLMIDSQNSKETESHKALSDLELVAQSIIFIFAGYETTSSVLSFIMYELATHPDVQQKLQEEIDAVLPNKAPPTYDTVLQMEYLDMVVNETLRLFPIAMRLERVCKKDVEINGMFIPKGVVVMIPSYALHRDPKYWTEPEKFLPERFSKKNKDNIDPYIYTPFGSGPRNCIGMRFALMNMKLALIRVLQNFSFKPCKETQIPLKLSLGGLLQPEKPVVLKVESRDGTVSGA

[15] = Drug level in brain of Sprague-Dawley rat at 10 mg/kg, po administered as single dose via gavage measured at 8 hrs by LC-MS/MS analysis; assay type: ADME, organism-based; settings: read-out: Drug uptake
[16] = Drug level in brain of Sprague-Dawley rat at 10 mg/kg, po administered as single dose via gavage measured at 24 hrs by LC-MS/MS analysis; assay type: ADME, organism-based; settings: read-out: Drug uptake
[17] = Clearance in Sprague-Dawley rat at 3 mg/kg, iv administered as single dose by LC-MS/MS analysis; assay type: ADME, organism-based; settings: in vivo
[18] = Drug level in liver of Sprague-Dawley rat at 10 mg/kg, po administered as single dose via gavage measured at 8 hrs by LC-MS/MS analysis; assay type: ADME, organism-based; settings: read-out: Drug uptake
[19] = Drug level in liver of Sprague-Dawley rat at 10 mg/kg, po administered as single dose via gavage measured at 2 hrs by LC-MS/MS analysis; assay type: ADME, organism-based; settings: read-out: Drug uptake
[20] = Drug level in plasma of Sprague-Dawley rat at 10 mg/kg, po administered as single dose via gavage measured at 48 hrs by LC-MS/MS analysis; assay type: ADME, organism-based
[21] = Cmax in Sprague-Dawley rat at 10 mg/kg, po administered as single dose via gavage by LC-MS/MS analysis; assay type: ADME, organism-based; set-up: dose 10 mg/kg, route oral; settings: in vivo
[22] = Drug level in liver of Sprague-Dawley rat at 10 mg/kg, po administered as single dose via gavage measured at 4 hrs by LC-MS/MS analysis; assay type: ADME, organism-based; settings: read-out: Drug uptake
[23] = Drug level in plasma of Sprague-Dawley rat at 10 mg/kg, po administered as single dose via gavage measured at 8 hrs by LC-MS/MS analysis; assay type: ADME, organism-based
[24] = Ratio of AUC (0 to 48 hrs) in liver to plasma of Sprague-Dawley rat at 10 mg/kg, po administered as single dose via gavage by LC-MS/MS analysis; assay type: ADME, organism-based; settings: liver and plasma, read-out: Ratio AUC
[25] = Drug level in brain of Sprague-Dawley rat at 10 mg/kg, po administered as single dose via gavage measured at 32 hrs by LC-MS/MS analysis; assay type: ADME, organism-based; settings: read-out: Drug uptake
[26] = Oral bioavailability in Sprague-Dawley rat at 10 mg/kg administered as single dose via gavage by LC-MS/MS analysis; assay type: ADME, organism-based; settings: in vivo
[27] = Drug level in liver of Sprague-Dawley rat at 10 mg/kg, po administered as single dose via gavage measured at 24 hrs by LC-MS/MS analysis; assay type: ADME, organism-based; settings: read-out: Drug uptake

| Structure (SMILES) | Vd [1] [L/kg] | IC50 [2] [nM] | concentration at 32 h [6] [µM] | IC50 [7] [nM] | concentration at 48 h [9] [µM] | concentration at 4 h [12] [µM] | half-life [13] [h] | IC50 [14] [nM] | concentration at 8 h [15] [µM] | concentration at 24 h [16] [µM] | clearance [17] [mL/min/kg] | concentration at 8 h [18] [µM] | concentration at 2 h [19] [µM] | concentration at 48 h [20] [µM] | Cmax [21] [µM] | concentration at 4 h [22] [µM] | concentration at 8 h [23] [µM] | Kp [24] | bioavailability [26] [%] | concentration at 24 h [27] [µM] | other results |
| --- | --- | --- | --- | --- | --- | --- | --- | --- | --- | --- | --- | --- | --- | --- | --- | --- | --- | --- | --- | --- | --- |
| Nc1ncc(C(=O)N[C@H]2CC/C(=C\c3cccc(Oc4ccc(C(F)(F)F)cn4)c3)CC2)cn1 (configuration not stated) | 0.8 | 0.6 | 2.7 | > 12500 | 1.1 | 7.8 | 17.2 | > 12500 | 7.2 | 4.4 | 0.6 | 34 | 31 | 1.3 | 7.8 | 38 | 7.3 | 4.3 | 46 | 23 | selectivity ratio [3]: > 5000; selectivity ratio [4]: > 5000; selectivity ratio [5]: > 5000; inhibition (INH) [8]: Not Active; selectivity ratio [10]: > 5000; selectivity ratio [11]: > 5000; concentration at 32 h [25]: 2.3 µM |
| O=C(N[C@H]1CC/C(=C\c2cccc(Oc3ccc(C(F)(F)F)cn3)c2)CC1)c1cccnc1 (configuration not stated) | 0.9 | 0.7 |  | 4600 |  | 3.3 | 5.1 | 400 | 4.7 | 1.1 | 2.4 | 32 | 52 |  | 7.2 | 43 | 3 | 10.5 | 35 | 7.7 |  |
| Cc1cc(C(=O)N[C@H]2CC/C(=C\c3cccc(Oc4ccc(C(F)(F)F)cn4)c3)CC2)cnc1N (configuration not stated) | 1.2 | 1.3 | 3 | > 12500 | 0.6 | 4.8 | 17 | > 12500 | 3.2 | 1.3 | 0.8 | 37 | 41 | 1.1 | 6.7 | 37 | 5.3 | 6.9 | 46 | 22 | selectivity ratio [3]: > 5000; selectivity ratio [4]: > 5000; selectivity ratio [5]: > 5000; inhibition (INH) [8]: Not Active; selectivity ratio [10]: > 5000; selectivity ratio [11]: > 5000; concentration at 32 h [25]: 1.2 µM |
| Nc1ccc(C(=O)N[C@H]2CC/C(=C\c3cccc(Oc4ccc(C(F)(F)F)cn4)c3)CC2)cn1 (configuration not stated) | 0.6 | 1.2 | 2.2 | 9100 | 0.7 | 8.6 | 9.2 | > 12500 | 5.2 | 2.5 | 0.7 | 74.9 | 72.6 | 1 | 8.8 | 69.7 | 8.2 | 9.2 | 42 | 33 | concentration at 32 h [25]: 1.9 µM |
